From paper PMC5781229 (Analytical biochemistry, 2017)

Molecular target: TET2 (Homo sapiens, UniProt Q6N021, DEL1481-1843)

`O=C(O)CCC(=O)C(=O)O` [compound 1, 2KG] gave a Km of 15.7 µM.
